Like-named read-outs stand apart in the source and are kept apart here.
Tests used:
[1] = biological target: T1, full-length beta-Catenin (Uniprot ID P35222) (Homo sapiens, UniProt P35222); experiment: Fluorescence polarization IC50 (beta-catenin / 5FAM-TCF4 10-53 competition); format: binding; conditions: fluorescence polarization; read-out: beta-Catenin FP IC50
T1 construct: 10 nM full-length beta-Catenin (Uniprot ID P35222)
T1 sequence (P35222 1-781): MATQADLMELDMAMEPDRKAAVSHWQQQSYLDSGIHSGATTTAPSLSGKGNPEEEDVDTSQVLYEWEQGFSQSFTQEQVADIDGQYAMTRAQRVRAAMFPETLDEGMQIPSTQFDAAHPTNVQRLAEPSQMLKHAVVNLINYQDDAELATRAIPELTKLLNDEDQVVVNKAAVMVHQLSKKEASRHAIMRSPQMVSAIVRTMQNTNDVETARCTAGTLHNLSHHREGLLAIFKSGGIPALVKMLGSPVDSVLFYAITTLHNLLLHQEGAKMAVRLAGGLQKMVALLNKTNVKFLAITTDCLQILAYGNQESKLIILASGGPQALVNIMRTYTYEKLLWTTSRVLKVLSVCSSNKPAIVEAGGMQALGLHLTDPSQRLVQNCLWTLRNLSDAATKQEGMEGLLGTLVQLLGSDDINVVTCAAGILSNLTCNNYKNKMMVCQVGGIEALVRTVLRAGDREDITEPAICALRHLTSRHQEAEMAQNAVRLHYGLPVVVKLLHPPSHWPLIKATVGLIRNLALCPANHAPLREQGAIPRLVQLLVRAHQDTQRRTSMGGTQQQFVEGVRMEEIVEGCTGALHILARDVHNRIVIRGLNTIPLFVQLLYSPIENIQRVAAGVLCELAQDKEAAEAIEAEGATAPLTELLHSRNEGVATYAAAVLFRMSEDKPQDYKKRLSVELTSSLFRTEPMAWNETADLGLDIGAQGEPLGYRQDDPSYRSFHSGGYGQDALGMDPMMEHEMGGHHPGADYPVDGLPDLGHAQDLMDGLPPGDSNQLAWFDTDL

[2] = biological target: T2, beta-catenin/TCF4 engagement (Homo sapiens, UniProt P35222); experiment: Nano-BRET target engagement assay (B-cat-Halo & TCF4-Luc in HEK293 cells); format: cell-based; conditions: read-out: NanoBRET Abs IC50
T2 construct: expressed in transfected cells; host or cells: HEK293
T2 sequence (P35222 1-781): T1 sequence (P35222 1-781)

[3] = test system: TCF/LEF luciferase Reporter in DLD1 cells; experiment: TCF reporter assay (DLD1 TCF/LEF luciferase reporter, Bright-Glo); format: cell-based
Text: Those skilled in the art will appreciate that other suitable reagents may be utilized and various parameters may be adjusted.
DLD1 reporter cell line was generated by using TCF/LEF luciferase Reporter Lentivirus (BPS Bioscience Catalog #79787). Parental DLD1 cells (ATCC@ CCL-221) were transfected with the lentivirus and followed by 3-day puromycin selection. Single clone was selected for Reporter assay.
On Day 1, cultured cells in flasks that are no more than about 60-70% confluent were washed with PBS and typsinized in 3 mL/T75 until cells were free floating. Spin down cells for 5 minutes at 1100RPM. While cells spin, determine the number of plates (3 compounds per plate) needed. After spinning, aspirate the supernatant gently and add 10 mL media (RPMI+4% FBS), and re-suspend and mix the cells gently. Count the cells twice in the cell counter Countess and take average of both the counts, and determine how many cells are needed. After plating cells at 5000 cells/well, seal with aerseal film. 90 uL cells/well. Incubate at 37° C. overnight, tap gently to mix and don't stack plates.
On Day 2, compounds were added. Stock solution was 10 mM. Make the DMSO containing media by adding 36 uL DMSO to 10 mL of media. Make the dilution wells by transferring 100 uL DMSO+Media into rows B-F of a protein LoBind 96-well plate. Row G is empty. Add any extra DMSO+media to row H. Transfer 4 uL of stock solution to Row A. One compound per column. Add 196 uL media to Row A, no DMSO in the media. Concentration of Row A was 200 uM. Mix well and do a 6 pt, 1:2 serial dilution, mix ×10 per transfer and change tips before each transfer. Removed excess volume from final well (row F) and discard. Transfer 10 uL of the compound containing media to cells with a multichannel according to plate maps. Add 60 uL DMSO containing media to the DMSO wells. The edge wells were typically not used in the assay and could be ignored if needed or replaced with PBS, but there typically were liquids in the wells. Cover plates with breathable plate sealer and incubate overnight.
A 96-well plate may be utilized to prepare dilution series for up to 12 compounds, each with several concentrations (e.g., 200, 100, 50, 25, 12.5, 6.25 and 0 uM; can be utilized as 100× depending on final test concentrations).
0 uM is the DMSO control for the whole plate. Edge well filled with 90 uL cells+10 uL DMSO containing media.
On Day 3, luciferase levels were assessed using Bright-Glo (Promega). Equilibrate Bright-Glo to room temperature before addition. 7 mL of mixed Bright-Gbo per plate. Unused Bright-Glo could be store at −80° C. Reconstituted reagent can be stored for up to 1 month at −80° C., or after one freeze-thaw. When ready to read, remove plates from incubator and let sit at room temperature for 15 minutes. Typically stagger taking out plates if reading multiple plates before adding the Bright-Glo. Add 90 uL/well Bright-Glo and shake gently for 3 minutes. Read luminescence on GloMax immediately using ‘BrightGlo’ programs.
Cellular activity was assessed using CTG. Equilibrate CTG reagents to room temperature. Equilibrate plates to room temp, e.g. 15 min. Use same time length for all plates. Add CTG reagent, 25 uL if using undiluted, or 90 uL if diluted 1 to 4. Shake for 2 min to induce cell lysis. Allow plate to incubate at RT for 10 min to stabilize lumine sent signal. Read luminesence using program ‘CellTiter-Glo’. Use Prism to find the Absolute IC50 (AbsIC50=X[50]) of each compound.

[4] = read-out: DLD1 4% Abs IC50, DLD1 reporter, 4%, absolute IC50
[5] = absolute IC50, read-out: DLD1 reporter assay Abs IC50

Compound | IC50 [1] [µM] | IC50 ([2]; absolute IC50) [µM] | IC50 [3, 4] [µM] | IC50 [2] [µM] | IC50 ([3]; read-out: DLD1 4% Abs IC50, DLD1 4%) [µM] | IC50 [3, 5] [µM] | IC50 ([3]; read-out: DLD1 4% Abs IC50, DLD1 reporter assay, 4%, absolute IC50) [µM]
CC(=O)N1CCC[C@]12CC=CCCCC1(CCCC=CCCCOC(=O)N3CC[C@@](C(=O)N[C@@H](Cc4ccsc4)C(=O)N[C@@H](Cc4csc5ccccc45)C(=O)N[C@@H](CC(N)=O)C(=O)N[C@@H](CC(C)C)C(=O)N[C@@H](CC(C)C)C(=O)N[C@@H](CC(C)C)C(N)=O)(C3)NC(=O)[C@H](CC(C)C)NC(=O)[C@H](Cc3ccccc3)NC(=O)[C@H](C)NC(=O)[C@H](C)NC(=O)[C@H](Cc3cccc(C(=O)O)c3)NC(=O)[C@H](CC(=O)O)NC1=O)NC(=O)[C@H](CC(C)(C)C)NC(=O)[C@H](CC(=O)O)NC2=O (stereo partly drawn) [I-2276, Ac-PL3-Asp-Npg-B5-Asp-3COOHF-Ala-Ala-Phe-Leu-PyrS2-3Thi-BztA-Asn-Leu-Leu-Leu-NH2] | 0.157 | 4 | 3.9 | – | – | – | –
CC(=O)N1CCC[C@]12CC=CCCCC1(CCCC=CCCCOC(=O)N3CC[C@@](C(=O)N[C@@H](Cc4ccsc4)C(=O)N[C@@H](Cc4csc5ccccc45)C(=O)N[C@@H](C)C(N)=O)(C3)NC(=O)[C@H](CC(C)C)NC(=O)[C@H](Cc3ccccc3)NC(=O)[C@H](C)NC(=O)C(C)(C)NC(=O)[C@H](Cc3cccc(C(=O)O)c3)NC(=O)[C@H](CC(=O)O)NC1=O)NC(=O)[C@H](CC(C)(C)C)NC(=O)[C@H](CC(=O)O)NC2=O (stereo partly drawn) [I-1920, Ac-PL3-Asp-Npg-B5-Asp-3COOHF-Aib-Ala-Phe-Leu-PyrS2-3Thi-BztA-Ala-NH2] | 0.018 | – | – | 3.1 | 1.2 | – | –
CC(=O)N1CCC[C@]12CC=CCCCC1(CCCC=CCCCOC(=O)N3CC[C@@](C(=O)N[C@@H](Cc4ccsc4)C(=O)N[C@@H](Cc4csc5ccccc45)C(=O)N[C@@H](CCC(N)=O)C(N)=O)(C3)NC(=O)[C@H](CC(C)C)NC(=O)[C@H](Cc3ccccc3)NC(=O)[C@H](C)NC(=O)[C@H](C)NC(=O)[C@H](CN(CC(=O)O)CC(F)(F)F)NC(=O)[C@H](CC(=O)O)NC1=O)NC(=O)[C@H](CC(C)(C)C)NC(=O)[C@H](CC(=O)O)NC2=O (stereo partly drawn) [I-1461, Ac-PL3-Asp-Npg-B5-Asp-TfeGA-Ala-Ala-Phe-Leu-PyrS2-3Thi-BztA-Gln-NH2] | 0.01 | 3.7 | 1.7 | – | – | – | –
CC(=O)N1CCC[C@]12CC=CCCCC1(CCCC=CCCCOC(=O)N3CC[C@@](C(=O)N[C@@H](Cc4ccccc4Cl)C(=O)N[C@@H](Cc4csc5ccccc45)C(=O)N[C@@H](C)CO)(C3)NC(=O)[C@H]([C@@H](C)O)NC(=O)[C@H](Cc3ccccc3)NC(=O)[C@H](C)NC(=O)[C@H](C)NC(=O)[C@H](CN(CC(=O)O)CC(F)(F)F)NC(=O)[C@H](CC(=O)O)NC1=O)NC(=O)[C@H](CC(C)(C)C)NC(=O)[C@H](CC(=O)O)NC2=O (stereo partly drawn) [I-1242, Ac-PL3-Asp-Npg-B5-Asp-TfeGA-Ala-Ala-Phe-Thr-PyrS2-2C1F-BztA-Alao1] | 0.03 | > 20 | 3.8 | – | – | 4.8 | –
CC(=O)N1CCC[C@]12CC=CCCCC1(CCCC=CCCCOC(=O)N3CC[C@@](C(=O)N[C@@H](Cc4ccccc4Cl)C(=O)N[C@@H](Cc4csc5ccccc45)C(=O)N[C@H](CO)[C@@H](C)O)(C3)NC(=O)[C@H]([C@@H](C)O)NC(=O)[C@H](Cc3ccccc3)NC(=O)[C@H](C)NC(=O)[C@H](C)NC(=O)[C@H](CN(CC(=O)O)CC(F)(F)F)NC(=O)[C@H](CC(=O)O)NC1=O)NC(=O)[C@H](CC(C)(C)C)NC(=O)[C@H](CC(=O)O)NC2=O (stereo partly drawn) [I-1241, Ac-PL3-Asp-Npg-B5-Asp-TfeGA-Ala-Ala-Phe-Thr-PyrS2-2C1F-BztA-Thro1] | 0.019 | 15.7 | – | – | – | 3.8 | –
CC(=O)N1CCC[C@]12CC=CCCCC1(CCCC=CCCCOC(=O)N3CC[C@@](C(=O)N[C@@H](Cc4ccccc4Cl)C(=O)N[C@@H](Cc4csc5ccccc45)C(=O)N[C@H](CO)CC(C)C)(C3)NC(=O)[C@H]([C@@H](C)O)NC(=O)[C@H](Cc3ccccc3)NC(=O)[C@H](C)NC(=O)[C@H](C)NC(=O)[C@H](CC(=O)O)NC(=O)[C@H](CC(=O)O)NC1=O)NC(=O)[C@H](CC(C)(C)C)NC(=O)[C@H](CC(=O)O)NC2=O (stereo partly drawn) [I-1247, Ac-PL3-Asp-Npg-B5-Asp-Asp-Ala-Ala-Phe-Thr-PyrS2-2C1F-BztA-Leuo1] | 0.033 | > 20 | – | – | – | > 20 | –
CC(=O)N1CCC[C@]12CC=CCCCC1(CCCC=CCCCOC(=O)N3CC[C@@](C(=O)N[C@@H](Cc4ccsc4)C(=O)N[C@@H](Cc4csc5ccccc45)C(=O)N[C@@H](CCC(=O)N(C)C)C(=O)N[C@@H](C)C(N)=O)(C3)NC(=O)[C@H](CC(C)C)NC(=O)[C@H](Cc3ccccc3)NC(=O)[C@H](C)NC(=O)[C@H](C)NC(=O)[C@H](CN(CC(=O)O)CC(F)(F)F)NC(=O)[C@H](CC(=O)O)NC1=O)NC(=O)[C@H](CC(C)(C)C)NC(=O)[C@H](CC(=O)O)NC2=O (stereo partly drawn) [I-2467, Ac-PL3-Asp-Npg-B5-Asp-TfeGA-Ala-Ala-Phe-Leu-PyrS2-3Thi-BztA-Me2Gln-Ala-NH2] | 0.01 | 2.5 | 1.4 | – | – | – | –
CC(=O)N1CCC[C@]12CC=CCCCC1(CCCC=CCCCOC(=O)N3CC[C@@](C(=O)N[C@@H](Cc4ccccc4C(F)(F)F)C(=O)N[C@@H](Cc4csc5ccccc45)C(=O)N[C@@H](CCC(N)=O)C(=O)N[C@@H](CC(C)C)C(=O)N[C@@H](C)C(N)=O)(C3)NC(=O)[C@H](CC(C)C)NC(=O)[C@H](Cc3ccccc3)NC(=O)[C@H](C)NC(=O)[C@H](C)NC(=O)[C@H](Cc3cccc(C(=O)O)c3)NC(=O)[C@H](CC(=O)O)NC1=O)NC(=O)[C@H](CC(C)(C)C)NC(=O)[C@H](CC(=O)O)NC2=O (stereo partly drawn) [I-2378, Ac-PL3-Asp-Npg-B5-Asp-3COOHF-Ala-Ala-Phe-Leu-PyrS2-2F3MeF-BztA-Gln-Leu-Ala-NH2] | 0.031 | 4.8 | 1 | – | – | – | –
CC(=O)NCCCC[C@H](NC(=O)[C@H](Cc1csc2ccccc12)NC(=O)[C@H](Cc1ccsc1)NC(=O)[C@]12CCN(C1)C(=O)OCCCC=CCCCC1(CCCC=CC[C@]3(CCCN3C(C)=O)C(=O)N[C@@H](CC(=O)O)C(=O)N[C@@H](CC(C)(C)C)C(=O)N1)C(=O)N[C@@H](CC(=O)O)C(=O)N[C@@H](CN(CC(=O)O)CC(F)(F)F)C(=O)N[C@@H](C)C(=O)N[C@@H](C)C(=O)N[C@@H](Cc1ccccc1)C(=O)N[C@@H](CC(C)C)C(=O)N2)C(N)=O (stereo partly drawn) [I-1709, Ac-PL3-Asp-Npg-B5-Asp-TfeGA-Ala-Ala-Phe-Leu-PyrS2-3Thi-BztA-AcLys-NH2] | 0.014 | 6.2 | – | – | – | – | 3.9
